Seven molecules from patent publication US20250136722A1, “CYTOTOXICITY TARGETING CHIMERAS” (GLAXOSMITHKLINE INTELLECTUAL PROPERTY DEVELOPMENT LIMITED, priority 2021, published 2025) can be followed below.

Structures are written as SMILES.

For assay [1], the target named is human alpha1 nicotinic acetylcholine (nACh) receptor (Homo sapiens, UniProt P02708+Q07001). Kind of assay: Nicotinic acetylcholine receptor antagonism assay, IONFlux automated patch clamp (Example 203). The assay is classed as cell-based. The settings on record: for Emax at 100 µM: maximum percentage antagonism at maximum concentration tested 100 μM; for Emax at 100 µM / Emax at 10 µM: read-out: Maximum Response (%); for IC50: nAChR antagonism, ACh stimulated, patch clamp; for Emax at 10 µM: maximum percentage antagonism at maximum concentration tested 10 μM. The protocol: Cells expressing human alpha1 nicotinic acetylcholine (nACh) receptor (nAChR) were washed and dissociated using Trypsin containing buffer. Cells were then washed and seeded at a density of 3-5 million cells/mL and allowed to grow for 3 days. Then, 60-80 μL of cells were added to plates and incubated with dose response of an ARM compound of Formula (I) with a top concentration of either 10 μM or 100 μM. The receptor was then stimulated via addition of acetylcholine (ACh) and activation of the receptor was monitored via the IONFlux automated patch clamp system. IonFlux Data Analyzer software was utilized to perform leak subtraction and measure (min) peak current amplitude.
Chain of human alpha1 nicotinic acetylcholine (nACh) receptor (P02708 21-457): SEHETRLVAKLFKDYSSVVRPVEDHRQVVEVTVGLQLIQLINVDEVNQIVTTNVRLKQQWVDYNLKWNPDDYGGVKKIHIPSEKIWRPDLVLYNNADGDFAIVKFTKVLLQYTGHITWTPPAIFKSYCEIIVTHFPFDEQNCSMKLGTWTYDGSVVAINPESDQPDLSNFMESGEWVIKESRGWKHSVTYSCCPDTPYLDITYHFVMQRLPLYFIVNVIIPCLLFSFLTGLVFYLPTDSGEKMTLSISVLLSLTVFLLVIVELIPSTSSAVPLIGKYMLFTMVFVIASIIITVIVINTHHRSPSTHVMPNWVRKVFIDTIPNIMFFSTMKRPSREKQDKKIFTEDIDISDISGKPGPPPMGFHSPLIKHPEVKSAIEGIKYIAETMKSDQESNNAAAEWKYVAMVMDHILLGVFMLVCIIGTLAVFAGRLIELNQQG
Chain of human alpha1 nicotinic acetylcholine (nACh) receptor (P11230 24-501 partner): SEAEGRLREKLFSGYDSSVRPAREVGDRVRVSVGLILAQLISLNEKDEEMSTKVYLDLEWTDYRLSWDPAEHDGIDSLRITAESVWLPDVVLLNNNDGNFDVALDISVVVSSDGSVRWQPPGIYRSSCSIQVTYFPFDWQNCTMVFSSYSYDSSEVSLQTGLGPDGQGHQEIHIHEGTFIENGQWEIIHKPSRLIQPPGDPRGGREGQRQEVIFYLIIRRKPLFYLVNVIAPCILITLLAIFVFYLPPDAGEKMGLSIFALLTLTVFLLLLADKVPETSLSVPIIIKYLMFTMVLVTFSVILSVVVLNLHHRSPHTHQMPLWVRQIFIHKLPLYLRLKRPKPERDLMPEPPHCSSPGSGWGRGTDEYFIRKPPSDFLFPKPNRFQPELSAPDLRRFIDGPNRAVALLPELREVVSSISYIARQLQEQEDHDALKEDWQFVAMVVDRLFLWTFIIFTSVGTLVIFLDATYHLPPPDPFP
Chain of human alpha1 nicotinic acetylcholine (nACh) receptor (Q07001 22-517): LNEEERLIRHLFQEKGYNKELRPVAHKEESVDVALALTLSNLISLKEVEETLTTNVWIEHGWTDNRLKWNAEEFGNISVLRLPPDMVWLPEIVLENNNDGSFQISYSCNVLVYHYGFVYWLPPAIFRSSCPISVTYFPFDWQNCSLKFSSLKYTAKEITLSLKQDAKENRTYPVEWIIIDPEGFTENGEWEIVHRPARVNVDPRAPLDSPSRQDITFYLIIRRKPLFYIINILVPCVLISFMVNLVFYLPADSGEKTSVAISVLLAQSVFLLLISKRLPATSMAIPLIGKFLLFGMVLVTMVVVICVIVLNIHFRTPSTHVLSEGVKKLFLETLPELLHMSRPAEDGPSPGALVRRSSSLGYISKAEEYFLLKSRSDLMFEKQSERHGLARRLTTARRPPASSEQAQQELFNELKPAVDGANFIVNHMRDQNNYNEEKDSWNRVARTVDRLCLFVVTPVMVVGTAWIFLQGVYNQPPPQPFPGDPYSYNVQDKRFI
Data processing: (1) Current values recorded for vehicle only applications in individual traps/patterns were subtracted from corresponding current amplitude values for control, test article and control+test article. (2) Control response was calculated as % of the average response of the 3rd out of total 3 ACh (10 mM) applications alone. In rare situations, if the 3rd ACh response was obscured due to technical artifacts, the 2nd and/or 1 st ACh (10 mM) application was considered as control. The peak current amplitude generated in the presence of each test article concentration was then used to calculate the % inhibition as compared to control response (10 mM ACh alone). These estimates were further corrected for vehicle response and run down corrected by normalizing with time matched control responses (10 mM ACh alone). The corrected percentages were then fit with a non-linear function in GraphPad Prism 6 (or later versions) to determine the […].
Exclusion criteria: (i) any n's with poor recording quality, (ii) control current amplitude <500 pA or (iii) significant outliers, as determined by the Grubbs' test.
ARMs compounds of Formula (I) of the invention were tested for antagonism of the nAChR in the above assay in […] experimental runs and the results are shown in Table 7 below. Antagonistic activity of the compounds of Formula (I) of the invention is reported as an IC50 value (half maximal inhibitory concentration) and the maximum percentage antagonism observed at the highest concentration of compound of Formula (I) tested, as indicated in Table 7. For compounds tested in more than one experimental run, the IC50 value is reported as an average.
On the technique in general: The patch-clamp technique gives a direct electrical read-out from membranes.

The target of assay [2] is T1, CHOK1 cells engineered to overexpress human CCR2 (Homo sapiens, UniProt P41597).
T1 construct: expressed in transfected cells; host or cells: CHOK1 cells
Kind of assay: Antibody dependent cellular cytotoxicity (ADCC) reporter assay (Example 199). Format: cell-based. The settings on record: with anti-cotinine antibody SEQ ID NO: 11/12; CHOK1-human CCR2 target cells, Jurkat FcγRIIIa NFAT-luciferase reporter cells; 12-18 hours; read-out: ADCC Reporter Assay pEC50 (converted). An outline of the steps:
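Potency is reported as pEC50 from a nonlinear fit, averaged over runs, using luciferase signal divided by that of compound-free wells. The readout comes from NFAT-luciferase Jurkat cells expressing FcγRIIIa, mixed for 12–18 h with human CCR2-overexpressing CHOK1 cells, 1 pM–10 μM ARM compound and 0.01–200 μg/mL Fc-enhanced anti-cotinine IgG1.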

Turning to `CC(C)N(C)[C@@H]1CC[C@H](N2CC[C@H](Nc3ncnc4ccc(C(F)(F)F)cc34)C2=O)[C@H](NC(=O)[C@H]2C[C@H](NC(=O)CCOCCOCCOCCNC(=O)[C@H]3CC(=O)N(C)[C@@H]3c3cccnc3)C2)C1` [Example 27], in assay [1], the Emax at 100 µM stood at 53.8% and half-maximal inhibition (IC50) required 93700 nM. Also, the EC50 in assay [2] was 7.28 nM.
Consider `CC(C)N(C)[C@@H]1CC[C@H](N2CC[C@H](Nc3ncnc4ccc(C(F)(F)F)cc34)C2=O)[C@H](NC(=O)[C@H]2C[C@@H](NC(=O)CCOCCNC(=O)CCOCCNC(=O)[C@H]3CC(=O)N(C)[C@@H]3c3cccnc3)C2)C1` [Example 44, (2S,3S)-N-(2-(3-((2-(3-(((1S,3s)-3-(((1R,2S,5R)-5-(Isopropyl(methyl)amino)-2-((S)-2-oxo-3-((6-(trifluoromethyl)quinazolin-4-yl)amino)pyrrolidin-1-yl)cyclohexyl)carbamoyl)cyclobutyl)amino)-3-oxopropoxy)ethyl)amino)-3-oxopropoxy)ethyl)-1-methyl-5-oxo-2-(pyridin-3-yl)pyrrolidine-3-carboxamide], for which, in assay [1], the Emax at 100 µM amounted to 51.5% and the IC50 (as a rule, the point on the concentration scale where inhibition reaches its midpoint) was at least 100000 nM. Also, in assay [2], the EC50 is 0.897 nM.
Take `CC(C)N(C)[C@@H]1CC[C@H](N2CC[C@H](Nc3ncnc4ccc(C(F)(F)F)cc34)C2=O)[C@H](NC(=O)c2ccc(C3CCN(CCOCCOCCNC(=O)[C@H]4CC(=O)N(C)[C@@H]4c4cccnc4)CC3)cn2)C1` [Example 94]: in assay [1], the Emax at 10 µM stood at 67.1% and the IC50 stood at 4660 nM. Besides, the EC50 in assay [2] was 10 nM.
In the same order, the values of `CC(C)N(C)[C@@H]1CC[C@H](N2CC[C@H](Nc3ncnc4ccc(C(F)(F)F)cc34)C2=O)[C@H](NC(=O)c2ccc(N3CCC(C(=O)NCCOCCOCCNC(=O)[C@H]4CC(=O)N(C)[C@@H]4c4cccnc4)CC3)cc2)C1` [Example 130, 1-(4-(((1R,2S,5R)-5-(Isopropyl(methyl)amino)-2-((S)-2-oxo-3-((6-(trifluoromethyl)quinazolin-4-yl)amino)pyrrolidin-1-yl)cyclohexyl)carbamoyl)phenyl)-N-(2-(2-(2-((2S,3S)-1-methyl-5-oxo-2-(pyridin-3-yl)pyrrolidine-3-carboxamido)ethoxy)ethoxy)ethyl)piperidine-4-carboxamide] are 16.8%, over 10000 nM and 3.98 nM.
The like results for `CC(C)N(C)[C@@H]1CC[C@H](N2CC[C@H](Nc3ncnc4ccc(C(F)(F)F)cc34)C2=O)[C@H](NC(=O)[C@H]2CC[C@H](c3ccc(C(=O)NCCOCCOCCNC(=O)[C@H]4CC(=O)N(C)[C@@H]4c4cccnc4)cc3)CC2)C1` [Example 140] were, in that order, 18.2%, over 10000 nM and 3.16 nM.
On to `CC(C)N(C)[C@@H]1CC[C@H](N2CC[C@H](Nc3ncnc4ccc(C(F)(F)F)cc34)C2=O)[C@H](NC(=O)C2CCN(c3ccc(C(=O)NCCOCCOCCNC(=O)[C@H]4CC(=O)N(C)[C@@H]4c4cccnc4)cc3)CC2)C1` [Example 142], for which, in assay [1], the Emax at 10 µM worked out at 13.1% and the IC50 was over 10000 nM. For the same molecule, the EC50 in assay [2] is 0.501 nM.
In the same order, the values of `CC(C)N(C)[C@@H]1CC[C@H](N2CC[C@H](Nc3ncnc4ccc(C(F)(F)F)cc34)C2=O)[C@H](NC(=O)CCOCCN2CCC3(CCC(C(=O)NCCNC(=O)[C@H]4CC(=O)N(C)[C@@H]4c4cccnc4)CC3)CC2)C1` [compound 184] are 69.2%, 6390 nM and 0.398 nM.
